IC50 data for 37 compounds are collected here from patent US10155749B2, “Substituted benzimidazolium compounds useful in the treatment of respiratory diseases” (Boehringer Ingelheim International GmbH, priority 2015, dated 2018).

The test addresses T1, ENaC (Epithelial Sodium Channel) (Mus musculus, UniProt Q61180+Q9WU38+Q9WU39).
T1 construct: Mouse kidney M-1 cells were cultivated in DMEM containing 5% FCS and 5 μM dexamethasone; endogenous in cells; host or cells: Mouse kidney M-1 cells
T1 sequence (Q61180 1-699): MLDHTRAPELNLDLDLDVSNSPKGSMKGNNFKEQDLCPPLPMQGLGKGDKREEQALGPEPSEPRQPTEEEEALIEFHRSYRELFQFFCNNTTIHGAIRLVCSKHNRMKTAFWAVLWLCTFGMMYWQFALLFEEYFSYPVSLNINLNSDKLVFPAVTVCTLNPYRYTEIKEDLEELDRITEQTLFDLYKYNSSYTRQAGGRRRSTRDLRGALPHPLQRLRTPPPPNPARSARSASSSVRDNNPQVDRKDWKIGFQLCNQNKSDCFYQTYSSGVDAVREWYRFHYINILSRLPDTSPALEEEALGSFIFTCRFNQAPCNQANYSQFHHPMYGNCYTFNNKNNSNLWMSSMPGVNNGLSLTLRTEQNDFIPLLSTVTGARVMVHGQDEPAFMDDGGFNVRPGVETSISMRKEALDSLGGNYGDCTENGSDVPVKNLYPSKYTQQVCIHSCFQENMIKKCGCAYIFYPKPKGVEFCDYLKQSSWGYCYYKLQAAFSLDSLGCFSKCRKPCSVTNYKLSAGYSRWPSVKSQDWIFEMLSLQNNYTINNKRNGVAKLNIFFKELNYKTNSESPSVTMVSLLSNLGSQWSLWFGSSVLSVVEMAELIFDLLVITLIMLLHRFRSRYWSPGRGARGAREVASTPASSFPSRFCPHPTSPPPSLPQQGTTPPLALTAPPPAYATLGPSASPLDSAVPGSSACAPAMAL
T1 sequence (Q9WU38 1-638): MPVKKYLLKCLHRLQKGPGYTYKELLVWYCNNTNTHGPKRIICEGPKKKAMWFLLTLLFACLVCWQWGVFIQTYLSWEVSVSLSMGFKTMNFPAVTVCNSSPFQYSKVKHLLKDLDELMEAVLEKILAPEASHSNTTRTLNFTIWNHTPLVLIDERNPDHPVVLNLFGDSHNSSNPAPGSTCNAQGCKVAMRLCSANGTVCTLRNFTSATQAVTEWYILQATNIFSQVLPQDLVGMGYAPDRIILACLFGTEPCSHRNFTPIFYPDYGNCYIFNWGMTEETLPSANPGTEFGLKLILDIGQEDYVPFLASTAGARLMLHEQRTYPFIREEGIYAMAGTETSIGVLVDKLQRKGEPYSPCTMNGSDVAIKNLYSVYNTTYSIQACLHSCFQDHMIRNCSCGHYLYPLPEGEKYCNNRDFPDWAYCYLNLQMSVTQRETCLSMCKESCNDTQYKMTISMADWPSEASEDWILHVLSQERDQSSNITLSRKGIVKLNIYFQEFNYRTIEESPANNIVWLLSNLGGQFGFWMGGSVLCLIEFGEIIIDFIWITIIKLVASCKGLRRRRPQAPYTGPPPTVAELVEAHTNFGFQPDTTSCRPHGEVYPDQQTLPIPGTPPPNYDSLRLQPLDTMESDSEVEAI
T1 sequence (Q9WU39 1-655): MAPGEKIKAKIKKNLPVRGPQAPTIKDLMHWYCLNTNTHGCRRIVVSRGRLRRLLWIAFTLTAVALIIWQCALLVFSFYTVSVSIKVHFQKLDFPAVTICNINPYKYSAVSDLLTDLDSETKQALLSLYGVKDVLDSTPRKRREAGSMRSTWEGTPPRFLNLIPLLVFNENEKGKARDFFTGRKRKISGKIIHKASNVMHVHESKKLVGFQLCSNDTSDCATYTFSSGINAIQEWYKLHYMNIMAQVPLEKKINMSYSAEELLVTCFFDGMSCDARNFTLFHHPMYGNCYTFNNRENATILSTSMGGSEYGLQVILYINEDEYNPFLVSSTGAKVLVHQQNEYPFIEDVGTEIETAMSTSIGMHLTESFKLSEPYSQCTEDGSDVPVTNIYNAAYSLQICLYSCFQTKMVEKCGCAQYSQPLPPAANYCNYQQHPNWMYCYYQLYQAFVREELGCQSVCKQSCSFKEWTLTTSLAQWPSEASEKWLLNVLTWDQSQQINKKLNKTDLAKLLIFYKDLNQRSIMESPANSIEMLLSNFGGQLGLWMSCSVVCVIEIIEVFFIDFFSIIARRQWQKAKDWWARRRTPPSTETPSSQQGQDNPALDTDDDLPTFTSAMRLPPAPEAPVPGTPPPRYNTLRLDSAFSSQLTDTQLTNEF
The test is described as follows: Ussing Chamber assay (short circuit current, amiloride sensitive I_SC) in M-1 cells. The test is classed as cell-based. Conditions: Mouse kidney M-1 cells, apical application, 37° C. How it is done:
The IC50 values of the example compounds given above were determined in the Ussing Chamber assay.
Ussing Chamber: Mouse kidney M-1 cells were cultivated in DMEM containing 5% FCS and 5 μM dexamethasone for 10 to 12 days on polyester transwell filters. Filters were inserted into a teflon-coated well-plate which fit into the ussing chamber system. Prior to measurement the medium of M-1 cells was replaced with Caco-2 transport buffer (Invitrogen, Germany). During measurements, the Ussing chamber temperature was kept at 37° C. Short circuit currents (I_sc) were measured in the voltage-clamp mode with the software package Lab View for data acquisition and analysis. The transepithelial electrical resistance (TEER) was determined by the application of voltage steps of ±5 mV every 5 sec. Compounds were administered at a final concentration of 3 μM or at increasing concentrations (1-3-10 μM) to the apical solution. At the end of each experiment the amiloride sensitive I_SC was measured by adding 3 μM amiloride to the apical compartment. Results are expressed as inhibition in percent of the amiloride effect or as IC50.

On to `CCCCCOc1cc2c(cc1C(=O)N1CCNCC1)[n+](CC)c(CNC(=O)c1nc(Cl)c(N)nc1N)n2C[C@H](C)O` [Example 8.03], for which the midpoint of inhibition, the IC50, lay at 8 nM. Under `CCCCCOc1cc2c(cc1C(=O)N1CCN(C(=O)c3cncc(O)c3)CC1)[n+](CC)c(CNC(=O)c1nc(Cl)c(N)nc1N)n2C[C@H](C)O` [Example 4.18] stands 19 nM; under `CCn1c(CNC(=O)c2nc(Cl)c(N)nc2N)[n+](CC)c2ccc(CNC(=O)Cc3ncccc3O)cc21` [Example 4.03], 0.4 nM; under `CCNC(=O)c1cc2c(cc1OCC(=O)NCCOC)n(CC)c(CNC(=O)c1nc(Cl)c(N)nc1N)[n+]2CC` [Example 3.21], 9 nM. Under `CCn1c(CNC(=O)c2nc(Cl)c(N)nc2N)[n+](CC)c2ccc(OCC(=O)Nc3cncc([O-])c3)cc21` [Example 3.03] stands 0.3 nM; under `CCNC(=O)c1cc2c(cc1OCC(=O)O)n(CC)c(CNC(=O)c1nc(Cl)c(N)nc1N)[n+]2CC` [Example 7.01], 38 nM; under `CCCCCCN1CCC(NC(=O)COc2cc3c(cc2C(=O)NCC)[n+](CC)c(CNC(=O)c2nc(Cl)c(N)nc2N)n3CC)CC1` [Example 3.20], 15 nM. In the case of `CCNC(=O)c1cc2c(cc1OCC(=O)NC1CCNCC1)n(CC)c(CNC(=O)c1nc(Cl)c(N)nc1N)[n+]2CC` [Example 6.08] it was 1 nM; in that of `CCn1c(CNC(=O)c2nc(Cl)c(N)nc2N)[n+](CC)c2cc(F)c(C(=O)NCCCN(C)C)cc21` [Example 3.07], 1 nM. Regarding `CCn1c(CNC(=O)c2nc(Cl)c(N)nc2N)[n+](CC)c2ccc(OCCNC(=O)C3CCCN3C)cc21` (stereo not shown) [Example 4.06], the IC50 (in general, the concentration that inhibits the measured activity by half) was found to be 0.3 nM. For the compound `CCNC(=O)c1cc2c(cc1OCC(=O)OC(C)(C)C)n(CC)c(CNC(=O)c1nc(Cl)c(N)nc1N)[n+]2CC` [Example 1.11], inhibition was half-maximal at 10 nM (IC50). In the case of `CCCCCOc1cc2c(cc1C(=O)N1CCN(C(=O)OC(C)(C)C)CC1)[n+](CC)c(CNC(=O)c1nc(Cl)c(N)nc1N)n2C[C@H](C)O` [Example 1.10] it was 52 nM; in that of `CCNC(=O)COc1cc2c(cc1C(=O)NC1CCN(C(=O)OC(C)(C)C)CC1)[n+](CC)c(CNC(=O)c1nc(Cl)c(N)nc1N)n2CC` [Example 3.23], 8 nM. `CCn1c(CNC(=O)c2nc(Cl)c(N)nc2N)[n+](CC)c2ccc(OCCNC(=O)C3CCCN3C(=O)OC(C)(C)C)cc21` (stereo not shown) [Example 4.11] came in with an IC50 of 2 nM. In the case of `CCn1c(CNC(=O)c2nc(Cl)c(N)nc2N)[n+](CC)c2ccc(OCCNC(=O)CN3CCCC3)cc21` [Example 4.07] it was 1 nM; in that of `CCCn1c(CNC(=O)c2nc(Br)c(N)nc2N)[n+](C)c2ccc(OCC(=O)N(C)Cc3nc(C)ccc3O)cc21` [Example 2.01], 1 nM; in that of `CCN(CC)CC(=O)NCCOc1ccc2c(c1)n(CC)c(CNC(=O)c1nc(Cl)c(N)nc1N)[n+]2CC` [Example 4.04], 1 nM.

With `CCn1c(CNC(=O)c2nc(Cl)c(N)nc2N)[n+](CC)c2cc(C(=O)NC3CCN(C(=O)OC(C)(C)C)CC3)c(OCC(=O)OC(C)(C)C)cc21` [Example 1.13], the 50% inhibitory concentration (IC50) was found to be 9 nM. In the case of `CCn1c(CNC(=O)c2nc(Cl)c(N)nc2N)[n+](CC)c2ccc(OCCNC(=O)[C@H](C)N(C)C(=O)OC(C)(C)C)cc21` [Example 4.08], half-maximal inhibition (IC50) was put at 2 nM. In the case of `CCn1c(CNC(=O)c2nc(Cl)c(N)nc2N)[n+](CC)c2ccc(OCCNC(=O)[C@H](C)N)cc21` [Example 6.07] it was 0.4 nM; in that of `CCn1c(CNC(=O)c2nc(Cl)c(N)nc2N)[n+](CC)c2ccc(OCC(=O)NCCN)cc21` [Example 3.25], 1 nM.

`CCn1c(CNC(=O)c2nc(Cl)c(N)nc2N)[n+](CC)c2cc(C(=O)O)c(N3CCOCC3)cc21` [Example 6.01] displayed an IC50 of 14 nM. In turn, `CCCCCCN1CCC(NC(=O)COc2ccc3c(c2)n(CC)c(CNC(=O)c2nc(Cl)c(N)nc2N)[n+]3CC)CC1` [Example 3.04] had an IC50 of 0.6 nM. Take `CCn1c(CNC(=O)c2nc(Cl)c(N)nc2N)[n+](CC)c2cc(C(=O)NC3CCN(C(=O)OC(C)(C)C)CC3)c(OCC(=O)O)cc21` [Example 9.01]: inhibition was half-maximal at 9 nM (IC50). Compound `CCCCCC(=O)N(CCOc1ccc2c(c1)n(C[C@H](C)O)c(CNC(=O)c1nc(Cl)c(N)nc1N)[n+]2CC)CP(C)(C)=O` [Example 1.06] had a half-inhibitory concentration (IC50) of 2 nM. Compound `CCn1c(CNC(=O)c2nc(Cl)c(N)nc2N)[n+](CCO)c2cc(OCC(=O)N3CCN(C(C)=O)CC3)ccc21` [Example 1.14] had an IC50 of 3 nM. `CCn1c(CNC(=O)c2nc(Cl)c(N)nc2N)[n+](CC)c2ccc(OCCNC(=O)CN3CCN(C)CC3)cc21` [Example 4.05] returned a 50% inhibitory concentration (IC50) of 0.4 nM. In the case of `CCn1c(CNC(=O)c2nc(Cl)c(N)nc2N)[n+](CC)c2cc(C(=O)NC3CCNCC3)c(OCC(=O)O)cc21` [Example 7.02] it was 29 nM; in that of `CCn1c(CNC(=O)c2nc(Cl)c(N)nc2N)[n+](CC)c2ccc(OCCNC(=O)CN3CCOCC3)cc21` [Example 4.02], 2 nM; in that of `CCNC(=O)COc1cc2c(cc1C(=O)NC1CCNCC1)[n+](CC)c(CNC(=O)c1nc(Cl)c(N)nc1N)n2CC` [Example 6.03], 8 nM. Under `CC[n+]1c(CNC(=O)c2nc(Cl)c(N)nc2N)n(CCO)c2cc(OCC(=O)NC3CCN(C(C)=O)CC3)ccc21` [Example 1.04] stands 2 nM. In the case of `CCn1c(CNC(=O)c2nc(Cl)c(N)nc2N)[n+](CC)c2cc(C(=O)NC3CCNCC3)c(OCC(=O)NC3CCN(C)CC3)cc21` [Example 3.22] it was 10 nM. With `CCNC(=O)COc1cc2c(cc1C(=O)NC1CCN(C(C)=O)CC1)[n+](CC)c(CNC(=O)c1nc(Cl)c(N)nc1N)n2CC` [Example 4.13], the half-inhibitory concentration (IC50) amounted to 4 nM.

`CCn1c(CNC(=O)c2nc(Cl)c(N)nc2N)[n+](CC)c2ccc(OCCNC(=O)CN3CCC(N)CC3)cc21` [Example 6.05] displayed an IC50 of 1 nM. Under `CCOc1cc2c(cc1C(=O)N1CCN(C(=O)OC(C)(C)C)CC1)[n+](CC)c(CNC(=O)c1nc(Cl)c(N)nc1N)n2CC` [Example 1.09] stands 7 nM; under `CCNC(=O)c1cc2c(cc1OCC(=O)NC1CCN(C)CC1)n(CC)c(CNC(=O)c1nc(Cl)c(N)nc1N)[n+]2CC` [Example 3.18], 4 nM; under `CCOc1cc2c(cc1C(=O)N1CCN(C(=O)Cc3ccccn3)CC1)[n+](CC)c(CNC(=O)c1nc(Cl)c(N)nc1N)n2CC` [Example 4.12], 2 nM.
